Each structure is given as a SMILES string.

For one data set, the system named is melanoma SkMel37 cells. Description: AlamarBlue cell viability with ZIP synergy scoring (SynergyFinder 3.0), SkMel37. It counts as cell-based, human. The following applies: single agent; 5 days; FIG. 1. How it is done: A human melanoma cell line with mutations in BRAF (BRAF^V600E) (SkMel37) was used. Cells were plated in 96 well plates and treated on the following day with increasing concentrations of dabrafenib and Omomyc, alone or in combination. After 5 days of treatment, media was removed and AlamarBlue™ Cell Viability Reagent was added to each well, incubated for 3 hours until metabolized, and fluorescence was read with a microplate reader using an excitation between 530-560 and an emission at 590 nm.
Synergy was evaluated using SynergyFinder 3.0 web application derived from lanevsky A et al. Nucleic Acids Res. 2022; 50(W1):W739-W743.
Synergy scores can be interpreted as the average excess response due to drug interactions. Synergy scores close to 0 give limited confidence in synergy or antagonism. So, when the synergy scores are: less than −10, the interaction between two drugs is likely to be antagonistic. From −10 to 10, the interaction between two drugs is likely to be additive. Greater than 10, the interaction between two drugs is likely to be synergistic.

In the next data set the test system is late-stage melanoma. As to conditions: cited from earlier work.
Data set [1] concerns wild type and mutant BRAF metastatic melanoma. The following applies: cited from earlier work.
A further data set deals with mutant BRAF. As to conditions: cited from earlier work.

`CC(C)(C)c1nc(-c2cccc(NS(=O)(=O)c3c(F)cccc3F)c2F)c(-c2ccnc(N)n2)s1` [dabrafenib]: the “reduction of viability of the cells” value in the data set with melanoma SkMel37 cells is “significantly reduces the viability of the cells”. The “tumors that develop resistance to the treatment” value with late-stage melanoma is 20%.
Regarding `CCCS(=O)(=O)Nc1ccc(F)c(C(=O)c2c[nH]c3ncc(-c4ccc(Cl)cc4)cc23)c1F` [vemurafenib], the “tumors that develop resistance to the treatment” value with late-stage melanoma was 20%.
Regarding `CNC(=O)c1cc(Oc2ccc(NC(=O)Nc3ccc(Cl)c(C(F)(F)F)c3)cc2)ccn1` [sorafenib], in data set [1] (human, in vivo), the off-target side-effects entry is recorded as “intolerable off-target side-effects”. Besides, the clinical activity result in data set [1] (monotherapy or in combination with dacarbazine) is on record as “failed to demonstrate any activity”. The “selectivity for mutant BRAF” value in the data set with mutant BRAF is recorded as “unable to selectively target mutant BRAF”.
